Laboratory results: US20090214654A1, “TREATMENT OF ANEURYSM WITH APPLICATION OF CONNECTIVE TISSUE STABILIZATION AGENT IN COMBINATION WITH A DELIVERY VEHICLE” (priority 2008, published 2009)
Where two headings read alike, the source gives them in different places.

Key:
[1] = tested on: porcine carotid arteries; experiment: In vitro elastase digestion of treated carotid arteries; conditions: treated 20 minutes; 0.6% (w/v) Glut, 0.15% (w/v) PGG, alone or as cocktail; elastase 24 hrs, 37°C
Method: Tissue resistance to elastase degradation after treatment with various reagents is studied. Specifically, porcine carotid arteries were treated with saline (control, for 20 minutes), Glutaraldehyde (Glut) (for 20 minutes), PGG (for 20 minutes), or a combination of the two (Glut+PGG for 20 minutes, or Glut for 10 minutes followed by a separate incubation with PGG for 10 minutes). Concentrations of the reagents used were 0.6% (w/v) for Glut, 0.15% (w/v) for PGG and 9 g/L for physiological saline.
The treated tissue was then exposed to an in vitro elastase digestion assay to subject the treated tissue to digestion for 24 hrs. All experiments were conducted at 37° C. Because the values shown are percentage of digestion, the lower the value, the better the reagent used preformed in resisting elastase degradation. […] It should be noted that the digestion model used in this experiment is a very accelerated and aggressive digestion model.

[2] = tested on: porcine aortic wall; experiment: Collagenase digestion of treated aortic wall; conditions: type I collagenase 150 U/mL, 37°C, 24 hours
Method: Tissue resistance to collagenase degradation after treatment with various reagents is discussed. Specifically, samples of porcine aortic wall were either left untreated (fresh) or treated with Glut alone or Glut followed by tannic acid (TA). Glut treatment was performed with 0.6% (w/v) Glut for 1 day, and then 0.2% (w/v) Glut for 7 days at room temperature; Glut/TA treatment was performed with 0.6% (w/v) Glut for 1 day, and then 0.2% (w/v) Glut for 7 days at room temperature followed by 0.15% (w/v) TA for 4 days at 37° C. The treated samples were rinsed 3 times (1 hour each) in 100 mL water, and lyophilized to record dry weight. Samples with the amount of 15 to 25 mg dry weight were immersed in 1.2 mL of type I collagenase (150 U/mL) dissolved in 50 mM Tris buffer, 10 mM CaCl2, pH 7.4, and incubated at 37° C. with orbital shaking at 650 rpm for 24 hours. Following this exposure to collagenase, samples were centrifuged (10000 rpm, 10 minutes, 4° C.), individually rinsed three times in 1 mL water, lyophilized to obtain dry weight after collagenase, and the percent of digested tissue was calculated.

[3] = tested on: abdominal aortic aneurysms in rats; type: in vivo, rat; conditions: for external aortic diameter: PGG group
Method: Pelivascular application of calcium chloride (CaCl2) to the infrarenal abdominal aorta of rodents is an accepted rat aneurysm model. It involves exposure of the abdominal aorta through a midline incision, using gauze to apply CaCl2 solution directly onto the aorta for 15 minutes, followed by surgical closure. Using this aneurysm model, we evaluated the effect of a single PGG application on development of abdominal aortic aneurysms in rats. For this study, we exposed the abdominal aorta in adult rats (n=12), measured the aorta diameter using digital photography and applied a 0.03% PGG solution in saline for 15 minutes using soaked gauze. After rinsing in saline, we induced aortic injury with the 15-minute application of 0.5 mol/L CaCl2 solution. Control rats (n=12) were treated with saline for 15 minutes, rinsed and then treated with 0.5 mol/L CaCl2 solution for 15 minutes. After 28 days, we re-exposed the abdominal aorta under general anesthesia, measured the external diameter, then euthanized the rats and collected the aorta for analysis. […] Along with aortic dilatation, perivascular application of CaCl2 induced major changes in vascular elastin content and integrity as shown by analysis of desmosine, an amino acid which is specific to elastin, as well as histology, all shown in FIG. 12.

[4] = tested on: aneurysmal aortas of rats; experiment: CaCl2 abdominal aortic aneurysm progression model, PGG applied to aneurysmal aorta at day 28; type: in vivo, rat; conditions: PGG group, 11 of 11
Method: Using the same perivascular CaCl2 aortic injury model described earlier, the ability of PGG to halt the progression of growing aneurysms was evaluated. By applying PGG to healthy abdominal aorta immediately before the CaCl2-based aneurysm induction, the previously mentioned in vivo experiment essentially evaluated the effect of PGG on aneurysm formation. However, in order to create a more clinically relevant scenario, PGG was also applied to abdominal aortas of rats which were aneurysmal to investigate PGG's ability to hinder or halt aneurysm progression. In order to do this, rat aortas were treated with calcium chloride, the animals were closed, and AAA was allowed to develop for 28 days. At this time point, the aneurysmal aortas were exposed by a second surgery, and PGG was applied perivascularly using gauze. As a control, saline was applied by the same means to the remaining aneurysmal aortas. AAA progression was followed for another 28 days in both groups. A progressive diameter increase, reaching a mean 47.1±11% increase at 56 days, was measured in the control group (n=11) and the results were illustrated in FIG. 13.

[5] = tested on: pure elastin strips obtained from porcine aorta; experiment: Tannic acid binding to pure aortic elastin (Folin-Denis method); conditions: incubation up to 24 hours
Method: In order to determine kinetics of tannin binding to elastin, pure elastin strips obtained from porcine aorta were incubated with tannic acid (TA) for up to 24 hours. The concentration of TA in solution was assayed with the Folin-Denis method. […] All data points between 0-6 hrs are statistically different with p<0.05. The bottom diagram of FIG. 6 is a representative schematic diagram of interactions between TA and elastin. The hydrophobic domains (2, black segments) are areas in the elastin molecule that are susceptible to elastase cleavage. TA and PGG molecules (4, round structures), with an affinity for these hydrophobic areas, likely bind to these regions within elastin molecules, and establish multiple hydrogen bonds (5, dashed lines) between their hydroxyl moieties and regions of neighboring elastin molecules, resulting in improved elastin stabilization. Desmosine crosslinks (3, X) within the hydrophilic regions (1) of elastin molecules.

[6] = tested on: pure elastin obtained from porcine aorta; experiment: Elastase digestion of TA-treated pure aortic elastin (mass loss, histology); type: biochemical
Method: To investigate the potential of tannins as elastin stabilizing reagents, pure elastin obtained from porcine aorta was treated with tannic acid (TA) and the resistance of the treated porcine aorta to elastase was tested. Porcine aorta was chosen because large quantities of fresh tissue were easily obtainable. […] Purified elastin from porcine aorta was obtained using sodium hydroxide treatment followed by collagenase digestion. The smooth muscle cells, collagen and ground matrix are absent from purified aortic elastin. […] Elastase completely digested pure elastin strips, while addition of a 0.3% TA pretreatment step increased stability towards enzymatic digestion by almost 50%, as evaluated by mass loss shown in the graph at the left of FIG. 7 (p<0.05, n=6). Gravimetric data were further confirmed by histology and shown in FIG. 7A-D. Since histological analysis of elastase-digested elastin control was not possible at 48 hours due to complete (˜100%) degradation, we exposed pure elastin to elastase for only 1.5 hours, an interval which yields about 50% digestion and mass loss.

[7] = tested on: fresh aorta; experiment: Resistance of treated fresh aorta to elastase digestion; conditions: 0.3% TA or 0.15% PGG (equimolar); accelerated digestion
Method: Resistance to elastase digestion was tested using fresh, untreated aorta and aorta treated with 0.3% TA or 0.15% PGG (equimolar concentrations). […] The differences between digestive values in TA and PGG samples were not significant (p>0.05). This is an accelerated digestion study, where high concentrations of enzyme were used. Such high enzyme activities are not expected to occur in vivo.

O=CCCCC=O [Glut, Glutaraldehyde]
resistance of tissue to elastase degradation (percentage digestion) vs saline [1]: slightly improved
percentage of sample digested by collagenase (mass loss) [2]: over 20%

O=C(OC[C@H]1O[C@@H](OC(=O)c2cc(O)c(O)c(O)c2)[C@H](OC(=O)c2cc(O)c(O)c(O)c2)[C@@H](OC(=O)c2cc(O)c(O)c(O)c2)[C@@H]1OC(=O)c1cc(O)c(O)c(O)c1)c1cc(O)c(O)c(O)c1 [PGG, penta-galloylglucose]
increase in aortic diameter after 28 days ([3]; 0.03% PGG in saline 15 minutes by soaked gauze before 0.5 mol/L CaCl2, day 28 vs day 0): 8±7%
loss of desmosine (elastin content) vs non-surgery control aorta ([3]; 28 days after injury): less than 15%
external aortic diameter ([3]; 28 days): 1.676±0.097 mm
external aortic diameter ([3]; day 0): 1.564±0.064 mm
time for which in vivo binding of PGG to aortic tissue is relatively stable ([3]; rat, in vivo): ≥ 28 days
PGG content of explanted aorta ([3]; rat, in vivo, 0 days): 1.8±0.6 μg PGG/mg dry tissue
PGG content of explanted aorta ([3]; rat, in vivo, 28 days): 1.2±0.4 μg PGG/mg dry tissue
aortas that maintained the same diameter or decreased at 56 days compared with 28 days [4]: 100%

O=C(OC[C@H]1O[C@@H](OC(=O)c2cc(O)c(O)c(OC(=O)c3cc(O)c(O)c(O)c3)c2)[C@H](OC(=O)c2cc(O)c(O)c(OC(=O)c3cc(O)c(O)c(O)c3)c2)[C@@H](OC(=O)c2cc(O)c(O)c(OC(=O)c3cc(O)c(O)c(O)c3)c2)[C@@H]1OC(=O)c1cc(O)c(O)c(OC(=O)c2cc(O)c(O)c(O)c2)c1)c1cc(O)c(O)c(OC(=O)c2cc(O)c(O)c(O)c2)c1 [TA, tannic acid]
TA binding kinetics normalized to dry weight of pure elastin strips [5]: rapid uptake
increase in stability towards enzymatic digestion, evaluated by mass loss ([6]; 0.3% TA pretreatment, elastase, n=6): about 50%
histology of aortic elastin structure after elastase treatment ([6]; TA-stabilized elastin, elastase for up to 48 hours): remarkably preserved
resistance of aorta to elastase (digestion values vs untreated fresh aorta) [7]: dramatically increased resistance
